Measured values reported in patent US20260109731A1, “NE[…] USE THEREOF” (HUNAN MINGRUI PHARMACEUTICAL CO., LTD., priority 2023, published 2026).
Where “and” joins values, the source holds several entries; their conditions need not be identical. Equal entries are not always repeated.

Legend:
[1] = Pharmacokinetic analysis of tail vein administration in female rats
Method: (§1) • Female SD rats (body weight: 200 g to 220 g) were purchased from BEIJING HFK BIOSCIENCE CO., LTD.
60 female SD rats were divided into two groups (Aintravenous and Bintravenous), with 30 rats per group (5 rats per blood collection time point). The drugs Aintravenous and Bintravenous were administered via tail vein injection at 3 mg/kg each (about 1.2 mL of drug solution). Blood was collected from the orbital venous plexus at time points (5 min, 30 min, 1 h, 2 h, 4 h, and 8 h) after administration, respectively, anticoagulated with heparin, and centrifuged, and then the plasma was separated and stored at −80° C. for later testing. At 8 h after blood collection, the animals were sacrificed, and the brain and liver tissues were taken and stored at −80° C. for later testing.
(§2) 100 μL of plasma sample, 10 μL of internal standard solution (100 ng/mL testosterone D-3 solution), and 310 μL of acetonitrile were accurately measured, uniformly mixed by vortexing, and centrifuged (14000 rpm, 4° C.), and a resulting supernatant was taken and detected using UPLC-MS/MS (the analysis method was the same as that in pharmacokinetic analysis in mice).
(§3) About 100 mg of brain or liver tissue sample was taken, and accurately weighed. 100 μL of water and 400 μL acetonitrile were accurately added thereto, and a resulting mixture was subjected to homogenization. 100 μL of brain or liver tissue homogenate, 10 μL of internal standard solution (100 ng/mL testosterone D-3 solution), and 310 μL of acetonitrile were accurately measured, uniformly mixed by vortexing, and centrifuged (14000 rpm, 4° C.), and a resulting supernatant was taken and detected using UPLC-MS/MS (the analysis method was the same as that in pharmacokinetic analysis in mice).

[2] = Pharmacokinetic analysis of oral administration to male rats; format: in vivo; conditions: oral gavage 12 mg/kg; for Blood drug concentration: individual rats 1-7
Description: Male SD rats (body weight: 230 g to 250 g) were purchased from BEIJING HFK BIOSCIENCE CO., LTD.

[3] = In vitro phase I metabolic stability in male SD rat hepatic microsomes; format: in vitro ADME; conditions: male SD rat hepatic microsomes
Method: Phase I metabolic stability kit (purchased from HUIZHI HEYUAN BIOTECHNOLOGY (BEIJING) CO., LTD), with the following components of the product:
Positive substrate testosterone solution (10 mM): diluted with acetonitrile to prepare a 200 μM solution for later use; stop solution & internal standard (testosterone-D3): dissolved with acetonitrile to prepare a 5 ng/mL solution for later use.
• 1) all components of the kit were thawed in an ice bath and placed on ice for later use; • 2) an incubation system (taking 200 μL system as an example) was prepared:
• 3) 160 μL of pre-incubation solution B was added into the centrifuge tube containing 40 μL of pre-incubation solution A, uniform mixing was performed by pipetting three times, and the resulting mixture was immediately placed in a water bath at 37° C. for incubation and timing was started; • 4) at predetermined incubation time points (0, 5, 10, 15, 30, 45, 60 minutes), the incubation solution was quantitatively taken out, and 200 μL of stop solution (5 ng/mL testosterone-D3 in acetonitrile, pre-chilled at 4° C.) was added to terminate the reaction (stop solution volume: incubation system volume=1:1). Experimental samples were prepared in triplicate at each time point.
To verify the validity of the experiment, a positive control group was established concurrently in the whole experiment to evaluate whether the incubation system functioned properly, with the preparation method as follows: the compound to be tested was replaced with the positive substrate testosterone (200 μM in acetonitrile) from the phase I metabolic stability kit, and the other components of the incubation system and experimental method were the same as those of the experimental group.
The ratio of the chromatographic peak area of the compound to be tested to the chromatographic peak area of the testosterone-D3 (internal standard) was used as the calculated data. By taking the peak area ratio at time zero of the test compound as 100%, the remaining percentages were calculated by comparing the peak area ratio at each time point with the peak area ratio at time zero, and the natural logarithms of the remaining percentages of the substrate at each time point are then subjected to linear regression against the incubation times to obtain the slope k. Therefore, the in vitro metabolic half-life (T1/2) and intrinsic clearance (CLint) were calculated using the following formulas: […]

[4] = Pharmacokinetic analysis of oral gavage administration in female rats
Method: as §1
60 female SD rats were divided into two groups (Aoral and Boral), with 30 rats per group (5 rats per blood collection time point). The drugs Aoral and Boral were administered via oral gavage administration at 12 mg/kg each (about 1.6 mL of drug solution). Blood was collected from the orbital venous plexus at each time point (5 min, 30 min, 1 h, 2 h, 4 h, and 8 h) after administration, respectively, anticoagulated with heparin, and centrifuged, and then the plasma was separated and stored at −80° C. for later testing. At 8 h after blood collection, the animals were sacrificed, and the brain and Liver tissues were taken and stored at −80° C. for later testing.
as §2, §3

[5] = female, SD, rat, plasma, iv, 3 mg/kg

Q: With `CC(=O)[C@H]1CC[C@H]2[C@@H]3CC[C@H]4C[C@H](O[N+](=O)[O-])CC[C@]4(C)[C@H]3CC[C@]12C` [Compound 1] as the compound, how does the “level of allopregnanolone in the liver after administration of compound 1” value ([1]; female SD rats, intravenous compound 1, 3 mg/kg, 8 h) read?
A: undetectable

Q: What about the concentration at 8 h ([1]; female, SD, rat, brain, intravenous, 3 mg/kg) of the same compound?
A: 209 ng/g

Q: And the Kp at 8 h ([1]; female, SD, rat, brain/plasma, intravenous, 3 mg/kg)?
A: 6.68

Q: And the concentration at 8 h ([1]; female, SD, rat, liver, iv, 3 mg/kg)?
A: 193 ng/g

Q: What about the clearance [1, 5] of the same compound?
A: 87.8 mL/min/kg

Q: What about the half-life [1, 5] of the same compound?
A: 0.96 h

Q: And the Blood drug concentration ([2]; male SD rats, 0.5 h, 12 mg/kg)?
A: 4.1 ng/mL and 5.7 ng/mL and 16.2 ng/mL and 8.7 ng/mL and 8.3 ng/mL and 8.1 ng/mL and 8.4 ng/mL

Q: And the Blood drug concentration ([2]; male SD rats, 1 h, 12 mg/kg)?
A: 14.1 ng/mL and 18.9 ng/mL and 35.9 ng/mL and 31.5 ng/mL and 22.3 ng/mL and 23.8 ng/mL and 50.6 ng/mL

Q: What about the Blood drug concentration ([2]; male SD rats, 2 h, 12 mg/kg) of the same compound?
A: 38.2 ng/mL and 85.8 ng/mL and 132.2 ng/mL and 88.8 ng/mL and 111.4 ng/mL and 123 ng/mL and 251.1 ng/mL

Q: And the Blood drug concentration ([2]; male SD rats, 3 h, 12 mg/kg)?
A: 71.9 ng/mL and 121.8 ng/mL and 288.6 ng/mL and 243.6 ng/mL and 103.9 ng/mL and 130.9 ng/mL and 616.7 ng/mL

Q: What about the Blood drug concentration ([2]; male SD rats, 4 h, 12 mg/kg) of the same compound?
A: 95.1 ng/mL and 147 ng/mL and 279.6 ng/mL and 252.2 ng/mL and 270.9 ng/mL and 343.8 ng/mL and 318.5 ng/mL

Q: And the Blood drug concentration ([2]; male SD rats, 5 h, 12 mg/kg)?
A: 250.4 ng/mL and 142.4 ng/mL and 252.4 ng/mL and 284.1 ng/mL and 262.5 ng/mL and 410.7 ng/mL and 582.4 ng/mL

Q: And the Blood drug concentration ([2]; male SD rats, 6 h, 12 mg/kg)?
A: 259.8 ng/mL and 263.9 ng/mL and 161.2 ng/mL and 260.7 ng/mL and 287.5 ng/mL and 409.8 ng/mL and 687.1 ng/mL

Q: And the Blood drug concentration ([2]; male SD rats, 8 h, 12 mg/kg)?
A: 121.7 ng/mL and 276.1 ng/mL and 383.6 ng/mL and 523.1 ng/mL and 496.4 ng/mL and 78.9 ng/mL and 556.5 ng/mL

Q: And the Blood drug concentration ([2]; male SD rats, 10 h, 12 mg/kg)?
A: 167.3 ng/mL and 1144.3 ng/mL and 424.6 ng/mL and 914.9 ng/mL and 382.7 ng/mL and 196.1 ng/mL and 396.3 ng/mL

Q: What about the Blood drug concentration ([2]; male SD rats, 12 h, 12 mg/kg) of the same compound?
A: 513.5 ng/mL and 873.9 ng/mL and 343.7 ng/mL and 730.7 ng/mL and 234.9 ng/mL and 303.8 ng/mL and 285.4 ng/mL

Q: What about the Blood drug concentration ([2]; male SD rats, 18 h, 12 mg/kg) of the same compound?
A: 68.5 ng/mL and 110.5 ng/mL and 196.7 ng/mL and 97 ng/mL and 83.3 ng/mL and 73.4 ng/mL and 134.5 ng/mL

Q: What about the Blood drug concentration ([2]; male SD rats, 24 h, 12 mg/kg) of the same compound?
A: 13.7 ng/mL and 68.5 ng/mL and 61.6 ng/mL and 20.7 ng/mL and 27.6 ng/mL and 13.8 ng/mL and 133.4 ng/mL

Q: And the Tmax ([2]; male SD rats, 12 mg/kg)?
A: 9.7 h

Q: And the concentration at 0.5 h ([2]; male, SD, rat, plasma, po, 12 mg/kg, 0.5 h, mean of 7 rats, read-out: Blood drug concentration, Mean value)?
A: 8.5 ng/mL

Q: What about the concentration at 1 h ([2]; male, SD, rat, plasma, po, 12 mg/kg, 1 h, mean of 7 rats, read-out: Blood drug concentration, Mean value) of the same compound?
A: 28.2 ng/mL

Q: What about the concentration at 2 h ([2]; male, SD, rat, plasma, po, 12 mg/kg, 2 h, mean of 7 rats, read-out: Blood drug concentration, Mean value) of the same compound?
A: 119 ng/mL

Q: And the concentration at 3 h ([2]; male, SD, rat, plasma, po, 12 mg/kg, 3 h, mean of 7 rats, read-out: Blood drug concentration, Mean value)?
A: 225 ng/mL

Q: And the concentration at 4 h ([2]; male, SD, rat, plasma, po, 12 mg/kg, 4 h, mean of 7 rats, read-out: Blood drug concentration, Mean value)?
A: 244 ng/mL

Q: What about the concentration at 5 h ([2]; male, SD, rat, plasma, po, 12 mg/kg, 5 h, mean of 7 rats, read-out: Blood drug concentration, Mean value) of the same compound?
A: 312 ng/mL

Q: What about the concentration at 6 h ([2]; male, SD, rat, plasma, po, 12 mg/kg, 6 h, mean of 7 rats, read-out: Blood drug concentration, Mean value) of the same compound?
A: 333 ng/mL

Q: What about the concentration at 8 h ([2]; male, SD, rat, plasma, po, 12 mg/kg, 8 h, mean of 7 rats, read-out: Blood drug concentration, Mean value) of the same compound?
A: 348 ng/mL

Q: And the concentration at 10 h ([2]; male, SD, rat, plasma, po, 12 mg/kg, 10 h, mean of 7 rats, read-out: Blood drug concentration, Mean value)?
A: 518 ng/mL

Q: And the concentration at 12 h ([2]; male, SD, rat, plasma, po, 12 mg/kg, 12 h, mean of 7 rats, read-out: Blood drug concentration, Mean value)?
A: 469 ng/mL

Q: What about the concentration at 18 h ([2]; male, SD, rat, plasma, po, 12 mg/kg, 18 h, mean of 7 rats, read-out: Blood drug concentration, Mean value) of the same compound?
A: 109 ng/mL

Q: What about the concentration at 24 h ([2]; male, SD, rat, plasma, po, 12 mg/kg, 24 h, mean of 7 rats, read-out: Blood drug concentration, Mean value) of the same compound?
A: 48.5 ng/mL

Q: What about the Tmax ([2]; male, SD, rat, plasma, po, 12 mg/kg, read-out: Tmax) of the same compound?
A: ~10 h

Q: What about the AUC(0-inf) ([2]; rat, plasma, male SD rats) of the same compound?
A: 6220 ng·h/mL

Q: What about the AUC(0-t) ([2]; rat, plasma, male SD rats) of the same compound?
A: 5830 ng·h/mL

Q: What about the Cmax ([2]; rat, plasma, male SD rats) of the same compound?
A: 649 ng/mL

Q: And the half-life ([2]; rat, plasma, male SD rats)?
A: 4.5 h

Q: What about the half-life ([3]; liver microsomes, NADPH system, 37° C., read-out: T1/2 (in vitro metabolic half-life)) of the same compound?
A: 1.56 h

Q: And the microsomal CLint ([3]; liver microsomes, read-out: intrinsic clearance)?
A: 14.8 µL/min/mg

Q: And the “In vitro CLint” value ([3]; 37° C.)?
A: 14.82 μL/min/mg protein

Q: And the “k (slope of ln remaining percentage against incubation time)” value ([3]; 37° C.)?
A: −0.0074

Q: And the Oral bioavailability ([4]; female SD rats, oral gavage 12 mg/kg vs tail vein 3 mg/kg)?
A: >65%

Q: What about the clearance ([4]; female SD rats, oral gavage, 12 mg/kg, sesame oil solution) of the same compound?
A: 9.67 mL/min/kg

Q: And the concentration at 8 h ([4]; female, SD, rat, brain, po, 12 mg/kg)?
A: 1640 ng/g

Q: What about the Kp at 8 h ([4]; female, SD, rat, brain/plasma, po, 12 mg/kg) of the same compound?
A: 2.95

Q: And the concentration at 8 h ([4]; female, SD, rat, liver, po, 12 mg/kg)?
A: 3700 ng/g

Q: And the bioavailability ([4]; female, SD, rat, plasma, oral, 12 mg/kg)?
A: > 65%

Q: What about the Tmax ([4]; female, SD, rat, plasma, po, 12 mg/kg) of the same compound?
A: > 8 h
